Reference: ChEMBL document CHEMBL1137017, “In vitro antiviral activity and cross-resistance profile of PL-100, a novel protease inhibitor of human immunodeficiency virus type 1” (Antimicrob Agents Chemother, 2007)
pEC50, pIC50, pKi: −log10 of the molar value.

Key:
[1] = Cytotoxicity against human MT4 cells after 6 days by MTT assay; format: cell-based
[2] = test system: Human immunodeficiency virus 1; experiment: Antiviral activity against wild type HIV1 NL4-3 in HEK293 cells after 48 hrs by replication-deffective luciferase reporter gene-based phenotypic assay; format: functional, organism-based; conditions: Human immunodeficiency virus 1, NL4-3, HEK293, 48 h
[3] = test system: Human immunodeficiency virus 1; experiment: Antiviral activity against wild type HIV1 NL4-3 infected in MT4 cells after 6 days by MTT assay; format: functional, organism-based; conditions: Human immunodeficiency virus 1, NL4-3, MT4, 144 h
[4] = Inhibition of pig pepsin; set-up: species or system Sus scrofa
[5] = target: Protease (Human immunodeficiency virus 1, UniProt Q9YQ12); experiment: Inhibition of HIV1 protease
[6] = target: Cathepsin D (Homo sapiens, UniProt P07339); experiment: Inhibition of human cathepsin D
Sequence of Cathepsin D (P07339 65-162 limits assumed): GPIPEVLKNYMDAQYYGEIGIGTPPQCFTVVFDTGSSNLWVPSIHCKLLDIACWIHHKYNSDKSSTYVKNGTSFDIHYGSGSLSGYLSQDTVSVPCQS
Sequence of Cathepsin D (P07339 169-412 limits assumed): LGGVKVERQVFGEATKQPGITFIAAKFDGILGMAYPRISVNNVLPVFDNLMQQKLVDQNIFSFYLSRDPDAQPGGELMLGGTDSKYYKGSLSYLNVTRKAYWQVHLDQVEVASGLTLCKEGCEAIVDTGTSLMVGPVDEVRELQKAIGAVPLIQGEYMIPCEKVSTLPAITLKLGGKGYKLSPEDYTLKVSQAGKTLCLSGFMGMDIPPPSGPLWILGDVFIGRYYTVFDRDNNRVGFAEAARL

Sequence of Protease (Q9YQ12 whole entry): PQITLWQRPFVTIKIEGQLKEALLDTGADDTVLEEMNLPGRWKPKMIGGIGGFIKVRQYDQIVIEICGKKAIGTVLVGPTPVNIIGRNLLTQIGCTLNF

Structure (SMILES) | CC50 at 144 h [1] [µM] | pEC50 [2] | pEC50 [3] | pIC50 [4] | pKi [5] | pIC50 [6]
CC(C)(C)NC(=O)[C@@H]1CN(Cc2cccnc2)CCN1C[C@@H](O)C[C@@H](Cc1ccccc1)C(=O)N[C@H]1c2ccccc2C[C@H]1O | > 100 | 8.11 | 7.17 |  |  | 
Cc1cccc(C)c1OCC(=O)N[C@@H](Cc1ccccc1)[C@@H](O)C[C@H](Cc1ccccc1)NC(=O)[C@H](C(C)C)N1CCCNC1=O [LOPINAVIR] | 28 | 8.55 | 7.72 |  |  | 
CC(C)CN(C[C@@H](O)[C@H](Cc1ccccc1)NC(=O)O[C@H]1CCOC1)S(=O)(=O)c1ccc(N)cc1 | > 100 | 7.97 | 7.29 | 6.55 | 9.93 | 4.82
CC(C)(C)NC(=O)[C@@H]1C[C@@H]2CCCC[C@@H]2CN1C[C@@H](O)[C@H](Cc1ccccc1)NC(=O)[C@H](CC(N)=O)NC(=O)c1ccc2ccccc2n1 | 19 | 8.74 | 7.92 |  |  | 
CC(C)c1nc(CN(C)C(=O)N[C@H](C(=O)N[C@@H](Cc2ccccc2)C[C@H](O)[C@H](Cc2ccccc2)NC(=O)OCc2cncs2)C(C)C)cs1 [RITONAVIR] |  |  | 7.21 |  |  | 
